# Assay results reported in patent publication US20100119589A1, “LIPOSOMAL COMPOSITION OF ANTIOXIDANTS FOR INHALATIONS CARRIED OUT DURING LUNG AND UPPER RESPIRATORY TRACT DISEASES” (OTKRYTOE AKTSIONERNOE OBSCHESTVO ZAVOD EKOLOGICHES, priority 2006, published 2010).
# Tests used:
# [1] = test system: multi lamellar vesicles of soybean phosphatidylcholine (PCh); assay: Inhibition of peroxidic oxidation of lipids (POL): TBA-sensitive products in soybean phosphatidylcholine liposomes; type: biochemical
# Protocol: The antioxidative activity of preparations with varying combinations of the ingredients was evaluated on the basis of their effect on the increase of concentration of POL products (malondialdehyde or products that are sentitive to thiobarbituric acid (TBA)) in an aqueous dispersion of soybean phospholipids. For this evaluation the concentration in the soybean phospatidylcholine liposomes was measured at an initial moment and after incubation at 37° C. for 60 min. in the absence and presence of POL starters, namely, Fe^3+ ions and ascorbate.
# Originally a 2.0 percent aqueous dispersion of phospholipides with antioxidants, where wheat germ oil is also present, contains an insignificant amount of products sensitive to TBA (0.8 nmol/ml). This amount rises to 2-2.5 times as much as a result of heating for 60 min. When starters are added to the original system the concentration of POL products rises to 40 nmol/ml during incubation at 37° C. for 60 min., i.e., will be […] as high.
# Increase of the amount of products sensitive to TBA [nmol/ml] in multi lamellar vesicles of soybean phosphatidylcholine (PCh) containing N-acetyl-L-cysteine as a result of oxidation, the latter caused by introduction of an oxidation starter Pe3+/ascorbat (60 min, 37° C.) into the system, in the absence and presence of various antioxidants (AO).
# [2] = in tablets; cited from earlier work
molecule,measurement,setting,value
O=C1O[C@H]([C@@H](O)CO)C(O)=C1O [ascorbic acid],minimum inhibiting concentration,"[1]; POL inhibition, ascorbic acid alone",2500 µg/mL
same,decrease of the concentration of the acid when wheat germ oil is simultaneously present,[1]; wheat germ oil and ascorbic acid simultaneously present,5 times
O=C1c2c(O)cc(O)cc2O[C@H](c2ccc(O)c(O)c2)[C@H]1O [dihydroquercetin],minimum effective concentration,[1]; POL inhibition,0.03 mg/mL
same,antioxidant activity when wheat germ oil was added,[1]; wheat germ oil added to dihydroquercetin,decreased
vitamin E,bioavailability,[2],3%
